Measurements published in article PMC9779606, “Synthesis, Structural Characterization and Biological Activity Evaluation of Novel Cu(II) Complexes with 3-(trifluoromethyl)phenylthiourea Derivatives” (International Journal of Molecular Sciences, 2022).
Like-named read-outs stand apart in the source and are kept apart here.

Experiments:
[1] = system: PC3 (metastatic prostate cancer); assay: Cytotoxicity, MTT assay; assay type: cell-based, human; details: 72 h, mean SD
Description: (§1) MTT assay was performed as previously described. Experiments were repeated three times. […] Decreased relative MTT level means decreased cell viability.

[2] = system: SW480 (primary colon cancer); assay: Cytotoxicity, MTT assay; assay type: cell-based, human; details: 72 h, mean SD
Description: as §1

[3] = system: SW620 (metastatic colon cancer); assay: Cytotoxicity, MTT assay; assay type: cell-based, human; details: 72 h, mean SD
Description: as §1

[4] = system: HaCaT (immortalized human keratinocytes); assay: Cytotoxicity, MTT assay; assay type: cell-based; details: normal cells, 72 h, mean SD
Description: as §1

[5] = system: Bacillus subtilis H17 (rec+); details: B. subtilis H17 (rec+); 256 µg per 9 mm disc (NOQ 2 µg per disc)
Description: (§2) DNA-damaging activity of compounds was tested by rec-assay using two genetically modified Bacillus subtilis strains: M45 (rec^−) and H17 (rec^+). Tested compounds were dissolved in DMSO, and 10 µL of each solution was dripped onto sterile cotton discs (Rotilabo) to load 256 µg of a given compound per 9 mm disc. Discs were placed on the surface Nutrient agar plates (Difco) inoculated with 100 µL of bacterial overnight culture and incubated for 24 h at 35 °C. After incubation, the growth inhibition zones were measured. […] Results of the genotoxicity test were estimated after 18 h of incubation at 35 °C by comparing the diameter of the inhibition zone on the B. subtilis M45 (rec^−) strain with that on the B. subtilis H17 (rec^+) strain.

[6] = system: Bacillus subtilis M45 (rec−); details: B. subtilis M45 (rec−); 256 µg per 9 mm disc (NOQ 2 µg per disc)
Description: as §2

[7] = system: methicillin-resistant Staphylococci (MRSA, MRSE)
S. aureus 537 = assay: MIC, hospital methicillin-resistant strains (MRSA); details: hospital MRSA strain S. aureus 537
S. aureus 568 = assay: MIC, hospital methicillin-resistant strains (MRSA); details: hospital MRSA strain S. aureus 568
S. aureus 573 = assay: MIC, hospital methicillin-resistant strains (MRSA); details: hospital MRSA strain S. aureus 573
S. aureus 495 = assay: MIC, hospital methicillin-resistant strains (MRSA); details: hospital MRSA strain S. aureus 495
S. aureus 497 = assay: MIC, hospital methicillin-resistant strains (MRSA); details: hospital MRSA strain S. aureus 497
S. aureus 514 = assay: MIC, hospital methicillin-resistant strains (MRSA); details: hospital MRSA strain S. aureus 514
S. aureus 522 = assay: MIC, hospital methicillin-resistant strains (MRSA); details: hospital MRSA strain S. aureus 522
S. aureus ATCC 25923 = assay: MIC, twofold serial microdilution, standard strains; details: S. aureus ATCC 25923, standard strain
S. epidermidis 424 = assay: MIC, hospital methicillin-resistant strains (MRSE); details: hospital MRSE strain S. epidermidis 424
S. epidermidis 469 = assay: MIC, hospital methicillin-resistant strains (MRSE); details: hospital MRSE strain S. epidermidis 469
S. epidermidis 471 = assay: MIC, hospital methicillin-resistant strains (MRSE); details: hospital MRSE strain S. epidermidis 471
S. epidermidis 431 = assay: MIC, hospital methicillin-resistant strains (MRSE); details: hospital MRSE strain S. epidermidis 431
S. epidermidis 435 = assay: MIC, hospital methicillin-resistant strains (MRSE); details: hospital MRSE strain S. epidermidis 435
S. aureus ATCC 6538 = assay: MIC, twofold serial microdilution, standard strains; details: S. aureus ATCC 6538, standard strain
S. epidermidis 436 = assay: MIC, hospital methicillin-resistant strains (MRSE); details: hospital MRSE strain S. epidermidis 436
S. epidermidis 513 = assay: MIC, hospital methicillin-resistant strains (MRSE); details: hospital MRSE strain S. epidermidis 513
S. aureus ATCC 29213 = assay: MIC, twofold serial microdilution, standard strains; details: S. aureus ATCC 29213, standard strain
[8] = system: S. epidermidis ATCC 12228; assay: as above; details: S. epidermidis ATCC 12228, standard strain
[9] = system: S. epidermidis ATCC 35984; assay: as above; details: S. epidermidis ATCC 35984, standard strain
E. coli ATCC 25922 = assay: as above; details: E. coli ATCC 25922, standard strain
P. aeruginosa ATCC 15442 = assay: as above; details: P. aeruginosa ATCC 15442, standard strain
P. aeruginosa ATCC 27853 = assay: as above; details: P. aeruginosa ATCC 27853, standard strain
C. albicans ATCC 10231 = assay: MIC, twofold serial microdilution, standard fungal strains; details: C. albicans ATCC 10231, standard strain
C. albicans ATCC 90028 = assay: as above; details: C. albicans ATCC 90028, standard strain

O.O=[N+]([O-])c1cc(NC(=S)[N-]c2cccc(C(F)(F)F)c2)ccc1Cl.O=[N+]([O-])c1cc(NC(=S)[N-]c2cccc(C(F)(F)F)c2)ccc1Cl.[Cu+2] [Cu5, Copper(II) Complex with 1-(4-chloro-3-nitrophenyl)-3-[3-(trifluoromethyl)phenyl]thiourea]
IC50 [1]: 11.7 ± 0.9 µM
IC50 [2]: 14.8 ± 1.2 µM
IC50 [3]: 19.5 ± 1.3 µM
IC50 [4]: 134 ± 2.9 µM
Genotoxic activity, inhibition zone diameter, H17 [5]: 18 mm
Genotoxic activity, inhibition zone diameter, M45 [6]: 17 mm
MIC, methicillin-resistant Staphylococci ([7]; 19 strains (above half) of tested hospital Staphylococci): 2 µg/mL
MIC, methicillin-resistant Staphylococci ([7]; S. aureus 537, 585, and 586 strains and half of the S. epidermidis isolates): 4 µg/mL
MIC (S. aureus 537): 4 µg/mL
MIC (S. aureus 568): 2 µg/mL
MIC (S. aureus 573): 2 µg/mL
MIC (S. aureus 495): 2 µg/mL
MIC (S. aureus 497): 2 µg/mL
MIC (S. aureus 514): 2 µg/mL
MIC (S. aureus 522): 2 µg/mL
MIC (S. aureus ATCC 25923): 4 µg/mL
MIC (S. epidermidis 424): 4 µg/mL
MIC (S. epidermidis 469): 4 µg/mL
MIC (S. epidermidis 471): 4 µg/mL
MIC (S. epidermidis 431): 2 µg/mL
MIC (S. epidermidis 435): 2 µg/mL
MIC (S. aureus ATCC 6538): 4 µg/mL
MIC (S. epidermidis 436): 2 µg/mL
MIC (S. epidermidis 513): 2 µg/mL
MIC (S. aureus ATCC 29213): 4 µg/mL
MIC [8]: 4 µg/mL
MIC [9]: 4 µg/mL
MIC (E. coli ATCC 25922): 128 µg/mL
MIC (P. aeruginosa ATCC 15442): 128 µg/mL
MIC (P. aeruginosa ATCC 27853): >256 µg/mL
MIC (C. albicans ATCC 10231): 128 µg/mL
MIC (C. albicans ATCC 90028): 128 µg/mL
